Assay results reported in patent publication US8916702B2 (priority 2012, dated 2014).

Tested on: HCV pseudoparticles (genotype 1a HCV E1 and E2 envelope, H77C isolate)
Experiment: microbe, parasite or virus in culture
Assay type: cell-based
Details: Hepatitis C virus, Huh-7, 48 h, HCV pseudoparticle infection of Huh7 cells, luciferase 2 days after infection; average of duplicates

Structure (SMILES)	EC50
CC(C)(CNC(=O)C(=O)NC1CCCCC1)CNC(=O)c1ccc(Nc2nc(NC3(c4ccc(Cl)cc4)CC3)nc(OCC(F)(F)F)n2)cc1 [Compound 1544]	0.08 nM
COC(=O)[C@H](CNC(=O)C(=O)Nc1ccc(C(F)(F)F)cc1)NC(=O)c1ccc(Nc2nc(NC3(c4ccc(Cl)cc4)CC3)nc(OCC(F)(F)F)n2)cc1 [Compound 1255]	1.1 nM
COC(=O)[C@H](CNC(=O)C(=O)NCC1CCOCC1)NC(=O)c1ccc(Nc2nc(NC3(c4ccc(Cl)cc4)CC3)nc(OCC(F)(F)F)n2)cc1 [Compound 1456]	3.45 nM

Same assay, conditions: Hepatitis C virus, Huh-7, 48 h, HCV pseudoparticles (genotype 1a, H77C) in Huh7 cells; average of duplicate; luciferase 2 days after infection

Structure (SMILES)	EC50
CC(C)(CNC(=O)C(=O)NC1(c2ccc(F)cc2)CC1)CNC(=O)c1ccc(Nc2nc(NC3(c4ccc(Cl)cc4)CC3)nc(OCC(F)(F)F)n2)cc1 [Compound 3013]	0.066 nM
O=C(NC/C(=N/C(=O)c1ccc(Nc2nc(NC3(c4ccc(Cl)cc4)CC3)nc(OCC(F)(F)F)n2)cc1)C(=O)O)C(=O)Nc1ccc(CCO)cc1 [Compound 3154]	1.44 nM

Same assay, conditions: Hepatitis C virus, Huh-7, 48 h, HCV pseudoparticles, Huh7 cells, luciferase 2 days after infection; average of duplicates

Structure (SMILES)	EC50
O=C(NCC[C@H](NC(=O)c1ccc(Nc2nc(NC3(c4ccc(Cl)cc4)CC3)nc(OCC(F)(F)F)n2)cc1)C(=O)O)C(=O)Nc1cccc(OC(F)(F)F)c1 [Compound 3619]	0.084 nM
COC(=O)[C@H](CNC(=O)C(=O)Nc1ccc(N2CCOCC2)nc1)NC(=O)c1ccc(Nc2nc(NC3(c4ccc(Cl)cc4)CC3)nc(OCC(F)(F)F)n2)cc1 [Compound 3703]	1.33 nM

Same assay, conditions: Hepatitis C virus, Huh-7, 48 h, read-out: Activity (EC50 class), HCV pseudoparticle infection of Huh7 cells, luciferase 2 days after infection; EC50 expressed as class A/B

Structure (SMILES)	EC50
COC(=O)[C@H](CCNC(=O)C(=O)NCc1cc(F)ccc1F)NC(=O)c1ccc(Nc2nc(NC3(c4ccc(Cl)cc4)CC3)nc(OCC(F)(F)F)n2)cc1 [Compound 1157]	0.01 to 10 nM
COC(=O)[C@H](CCNC(=O)C(=O)NCc1ccc(OC)cc1)NC(=O)c1ccc(Nc2nc(NC3(c4ccc(Cl)cc4)CC3)nc(OCC(F)(F)F)n2)cc1 [Compound 1146]	0.01 to 10 nM
COC(=O)[C@H](CCNC(=O)C(=O)NC1CCCCC1C)NC(=O)c1ccc(Nc2nc(NC3(c4ccc(Cl)cc4)CC3)nc(OCC(F)(F)F)n2)cc1 (some centres unmarked) [Compound 1075]	0.01 to 10 nM
CC(C)(CNC(=O)C(=O)NC1CCCCC1)CNC(=O)c1ccc(Nc2nc(NC3(c4ccc(Cl)cc4)CC3)nc(OCC(F)(F)F)n2)cc1 [Compound 1544]	0.01 to 10 nM
O=C(NCCc1ccncc1)C(=O)NCC[C@H](NC(=O)c1ccc(Nc2nc(NC3(c4ccc(Cl)cc4)CC3)nc(OCC(F)(F)F)n2)cc1)C(=O)O [Compound 1332]	0.01 to 10 nM
CC(C)(CNC(=O)C(=O)Nc1cccc(C(=O)O)c1)CNC(=O)c1ccc(Nc2nc(NC3(c4ccc(Cl)cc4)CC3)nc(OCC(F)(F)F)n2)cc1 [Compound 1485]	0.01 to 10 nM
COC(=O)[C@H](CCNC(=O)C(=O)Nc1ccc(OC)cc1)NC(=O)c1ccc(Nc2nc(NC3(c4ccc(Cl)cc4)CC3)nc(OCC(F)(F)F)n2)cc1 [Compound 1232]	0.01 to 10 nM
O=C(NC[C@H](NC(=O)c1ccc(Nc2nc(NC3(c4ccc(Cl)cc4)CC3)nc(OCC(F)(F)F)n2)cc1)C(=O)O)C(=O)Nc1cccc(C(F)(F)F)c1 [Compound 1359]	0.01 to 10 nM
CC(C)(CNC(=O)C(=O)Nc1ccccc1)CNC(=O)c1ccc(Nc2nc(NC3(c4ccc(Cl)cc4)CC3)nc(OCC(F)(F)F)n2)cc1 [Compound 1537]	0.01 to 10 nM
COC(=O)[C@H](CCNC(=O)C(=O)NCC1CC[C@H]2C[C@@H]1C2(C)C)NC(=O)c1ccc(Nc2nc(NC3(c4ccc(Cl)cc4)CC3)nc(OCC(F)(F)F)n2)cc1 (some centres unmarked) [Compound 1201]	0.01 to 10 nM
O=C(NCC[C@@H](NC(=O)c1ccc(Nc2nc(NC3(c4ccc(Cl)cc4)CC3)nc(OCC(F)(F)F)n2)cc1)C(=O)O)C(=O)Nc1cccc(F)c1F [Compound 1530]	0.01 to 10 nM
O=C(NCC[C@H](NC(=O)c1ccc(Nc2nc(NC3(c4ccc(Cl)cc4)CC3)nc(OCC(F)(F)F)n2)cc1)C(=O)O)C(=O)Nc1ccc(-c2ccncc2)cc1 [Compound 1525]	0.01 to 10 nM
O=C(NCC[C@H](NC(=O)c1ccc(Nc2nc(NC3(c4ccc(Cl)cc4)CC3)nc(OCC(F)(F)F)n2)cc1)C(=O)O)C(=O)NC1CCC(O)CC1 (some centres unmarked) [Compound 1118]	0.01 to 10 nM
COC(=O)[C@H](CNC(=O)C(=O)Nc1ccc(C(F)(F)F)cc1)NC(=O)c1ccc(Nc2nc(NC3(c4ccc(Cl)cc4)CC3)nc(OCC(F)(F)F)n2)cc1 [Compound 1255]	0.01 to 10 nM
COC(=O)[C@H](CCNC(=O)C(=O)N[C@H]1C[C@H]2C3C2[C@]31C)NC(=O)c1ccc(Nc2nc(NC3(c4ccc(Cl)cc4)CC3)nc(OCC(F)(F)F)n2)cc1 (some centres unmarked) [Compound 1100]	0.01 to 10 nM
COC(=O)[C@H](CNC(=O)C(=O)Nc1cccnc1)NC(=O)c1ccc(Nc2nc(NC3(c4ccc(Cl)cc4)CC3)nc(OCC(F)(F)F)n2)cc1 [Compound 1259]	0.01 to 10 nM
O=C(NCC1CCCc2ccccc21)C(=O)NC[C@@H](NC(=O)c1ccc(Nc2nc(NC3(c4ccc(Cl)cc4)CC3)nc(OCC(F)(F)F)n2)cc1)C(=O)O (some centres unmarked) [Compound 1410]	0.01 to 10 nM
COC(=O)[C@H](CCNC(=O)C(=O)NC1CCCC(NC(=O)OC(C)(C)C)C1)NC(=O)c1ccc(Nc2nc(NC3(c4ccc(Cl)cc4)CC3)nc(OCC(F)(F)F)n2)cc1 (some centres unmarked) [Compound 1097]	0.01 to 10 nM
COC(=O)[C@H](CNC(=O)C(=O)NCC1CCOCC1)NC(=O)c1ccc(Nc2nc(NC3(c4ccc(Cl)cc4)CC3)nc(OCC(F)(F)F)n2)cc1 [Compound 1456]	0.01 to 10 nM
CC(C)(CNC(=O)C(=O)Nc1cccc(C(=O)N2CCCCC2)c1)CNC(=O)c1ccc(Nc2nc(NC3(c4ccc(Cl)cc4)CC3)nc(OCC(F)(F)F)n2)cc1 [Compound 1574]	0.01 to 10 nM
COC(=O)[C@H](CCNC(=O)C(=O)N[C@H](C)C1CC1)NC(=O)c1ccc(Nc2nc(NC3(c4ccc(Cl)cc4)CC3)nc(OCC(F)(F)F)n2)cc1 [Compound 1377]	0.01 to 10 nM
COC(=O)[C@H](CCNC(=O)C(=O)N(C)C)NC(=O)c1ccc(Nc2nc(NC3(c4ccc(Cl)cc4)CC3)nc(OCC(F)(F)F)n2)cc1 [Compound 1011, (S)-methyl 2-(4-(4-(1-(4-chlorophenyl)cyclopropylamino)-6-(2,2,2-trifluoroethoxy)-1,3,5-triazin-2-ylamino)benzamido)-4-(2-(dimethylamino)-2-oxoacetamido)butanoate]	0.01 to 10 nM
O=C(NCc1ccc(F)c(F)c1)C(=O)NC[C@H](NC(=O)c1ccc(Nc2nc(NC3(c4ccc(Cl)cc4)CC3)nc(OCC(F)(F)F)n2)cc1)C(=O)O [Compound 1171]	0.01 to 10 nM

Same assay, conditions: Hepatitis C virus, Huh-7, 48 h, read-out: Activity (EC50 class), HCV pseudoparticles, Huh7 cells, luciferase 2 days after infection; average of duplicates

Structure (SMILES)	EC50
O=C(NC[C@H](NC(=O)c1ccc(Nc2nc(NC3(c4ccc(Cl)cc4)CC3)nc(OCC(F)(F)F)n2)cc1)C(=O)Cl)C(=O)Nc1cccc(Oc2ccccn2)c1 [Compound 3781]	0.01 to 10 nM
O=C(NC[C@H](NC(=O)c1ccc(Nc2nc(NC3(c4ccc(Cl)cc4)CC3)nc(OCC(F)(F)F)n2)cc1)C(=O)Cl)C(=O)Nc1cccc(C(=O)c2ccccc2)c1 [Compound 3748]	0.01 to 10 nM
O=C(NC[C@H](NC(=O)c1ccc(Nc2nc(NC3(c4ccc(Cl)cc4)CC3)nc(OCC(F)(F)F)n2)cc1)C(=O)O)C(=O)Nc1cccc(-c2cnco2)c1 [Compound 3752]	0.01 to 10 nM
O=C(NCC[C@H](NC(=O)c1ccc(Nc2nc(NC3(c4ccc(Cl)cc4)CC3)nc(OCC(F)(F)F)n2)cc1)C(=O)O)C(=O)Nc1cccc(OC(F)(F)F)c1 [Compound 3619]	0.01 to 10 nM
CC(C)(CNC(=O)C(=O)Nc1ccc(-c2nc3ccccc3o2)cc1)CNC(=O)c1ccc(Nc2nc(NC3(c4ccc(Cl)cc4)CC3)nc(OCC(F)(F)F)n2)cc1 [Compound 3831]	0.01 to 10 nM
C#Cc1cccc(NC(=O)C(=O)NC[C@H](NC(=O)c2ccc(Nc3nc(NC4(c5ccc(Cl)cc5)CC4)nc(OCC(F)(F)F)n3)cc2)C(=O)Cl)c1 [Compound 3746]	0.01 to 10 nM
Cc1csc(-c2cccc(NC(=O)C(=O)NCC[C@H](NC(=O)c3ccc(Nc4nc(NC5(c6ccc(Cl)cc6)CC5)nc(OCC(F)(F)F)n4)cc3)C(=O)O)c2)n1 [Compound 3649]	0.01 to 10 nM
CCc1ccc(COc2nc(Nc3ccc(C(=O)NCC(C)(C)CNC(=O)C(=O)Nc4ccc(C)cc4)cc3)nc(NC3(c4ccc(Cl)cc4)CC3)n2)cc1 [Compound 3842]	0.01 to 10 nM
CNS(=O)(=O)c1cccc(NC(=O)C(=O)NCC[C@H](NC(=O)c2ccc(Nc3nc(NC4(c5ccc(Cl)cc5)CC4)nc(OCC(F)(F)F)n3)cc2)C(=O)O)c1 [Compound 3651]	0.01 to 10 nM
COC(=O)[C@H](CNC(=O)C(=O)Nc1ccc(N2CCOCC2)nc1)NC(=O)c1ccc(Nc2nc(NC3(c4ccc(Cl)cc4)CC3)nc(OCC(F)(F)F)n2)cc1 [Compound 3703]	0.01 to 10 nM

Same assay, conditions: Hepatitis C virus, Huh-7, read-out: Activity (EC50 class), HCV pseudoparticles (genotype 1a, H77C) in Huh7 cells; EC50 expressed as class A/B

Structure (SMILES)	EC50
COC(=O)[C@H](CCNC(=O)C(=O)Nc1ccc(CNC(N)=O)cc1)NC(=O)c1ccc(Nc2nc(NC3(c4ccc(Cl)cc4)CC3)nc(OCC(F)(F)F)n2)cc1 [Compound 3314]	0.01 to 10 nM
O=C(Cc1ccc(F)cc1F)C(=O)NCC(O)CNC(=O)c1ccc(Nc2nc(NC3(c4ccc(Cl)cc4)CC3)nc(OCC(F)(F)F)n2)cc1 (centres unmarked) [Compound 3459]	0.01 to 10 nM
COC(=O)[C@H](CNC(=O)C(=O)Nc1ccc(CCO)cc1)NC(=O)c1ccc(Nc2nc(NC3(c4ccc(Cl)cc4)CC3)nc(OCC(F)(F)F)n2)cc1 [Compound 3086]	0.01 to 10 nM
CC(C)(CNC(=O)C(=O)NC1(c2ccc(F)cc2)CC1)CNC(=O)c1ccc(Nc2nc(NC3(c4ccc(Cl)cc4)CC3)nc(OCC(F)(F)F)n2)cc1 [Compound 3013]	0.01 to 10 nM
O=C(NC/C(=N/C(=O)c1ccc(Nc2nc(NC3(c4ccc(Cl)cc4)CC3)nc(OCC(F)(F)F)n2)cc1)C(=O)O)C(=O)Nc1ccc(CCO)cc1 [Compound 3154]	0.01 to 10 nM
CC(C)CNC(=O)C(=O)N(CCO)CCCNC(=O)c1ccc(Nc2nc(NC3(c4ccc(Cl)cc4)CC3)nc(OCC(F)(F)F)n2)cc1 [Compound 3505]	0.01 to 10 nM
Cc1ccc(NC(=O)C(=O)NC/C(=N/C(=O)c2ccc(Nc3nc(NC4(c5ccc(Cl)cc5)CC4)nc(OCC(F)(F)F)n3)cc2)C(=O)O)cc1 [Compound 3153]	0.01 to 10 nM
Cn1ncc2ccc(NC(=O)C(=O)NCC(C)(C)CNC(=O)c3ccc(Nc4nc(NC5(c6ccc(Cl)cc6)CC5)nc(OCC(F)(F)F)n4)cc3)cc21 [Compound 3024]	0.01 to 10 nM
COC(=O)[C@H](CCNC(=O)C(=O)Nc1ccc(CCCl)cc1)NC(=O)c1ccc(Nc2nc(NC3(c4ccc(Cl)cc4)CC3)nc(OCC(F)(F)F)n2)cc1 [Compound 3115]	0.01 to 10 nM
COC(=O)[C@H](CNC(=O)C(=O)Nc1ccc(-n2cncn2)cc1)NC(=O)c1ccc(Nc2nc(NC3(c4ccc(Cl)cc4)CC3)nc(OCC(F)(F)F)n2)cc1 [Compound 3101]	0.01 to 10 nM
COc1ccc(NC(=O)C(=O)NCC(C)(C)CNC(=O)c2ccc(Nc3nc(NC4(c5ccc(Cl)cc5)CC4)nc(OCC(F)(F)F)n3)cc2)cc1F [Compound 3072]	0.01 to 10 nM
O=C(NC[C@H](NC(=O)c1ccc(Nc2nc(NC3(c4ccc(Cl)cc4)CC3)nc(OCC(F)(F)F)n2)cc1)C(=O)O)C(=O)Nc1ccc(-c2ncco2)cc1 [Compound 3292]	0.01 to 10 nM
COC(=O)[C@H](CNC(=O)C(=O)Nc1ccc(C(N)=O)cc1)NC(=O)c1ccc(Nc2nc(NC3(c4ccc(Cl)cc4)CC3)nc(OCC(F)(F)F)n2)cc1 [Compound 3088]	0.01 to 10 nM
